How the values were obtained:
CA-46 cells = experiment: MTS single-dosage cell viability assay; type: cell-based; conditions: CA-46, 250 nM
Source text: (§1) Single-Dosage Cell Viability Assay in CA-46 and Raji Cells. CA-46 and Raji are both Myc-dependent and -overexpressing non-Hodgkin's lymphoma cell lines. Both cell lines overexpress Myc due to a translocation that inserts an IgH enhancer upstream to the Myc gene. Whereas CA-46's translocation eliminates the G-quadruplex-forming region in one allele, Raji's translocation preserves the G-quadruplex-forming regions in both alleles. Therefore, Raji would be more sensitive to G-quadruplex-mediated Myc inhibition than CA-46, which may be reflected in lower IC50 values for Raji than CA-46. To evaluate cell line selectivity, MTS single-dosage assays were conducted to compare the antiproliferative effects of 7-aza-8,9-methylenedioxyindenoisoquinolines on CA-46 and Raji cells at 250 nM drug concentration (FIG. 8). Average % viability values of CA-46 and Raji cells for each drug were presented in bar plots side-by-side.
(§2) MTS Cell Viability Single-dosage Assay. Drug solutions for the MTS single dosage assays were made from DMSO stocks by dilutions in 1×PBS. To set up treatments, drug solutions were plated in triplicates to a 96-well tissue culture plate and added with media containing CA46 or Raji 2000 cells/well. […] Cells were quantified the same way as in the IC50 assays. To obtain %-viability, A490 values were subtracted by blank, normalized to 100%-viability control, and averaged. […]

Raji cells = experiment: MTS single-dosage cell viability assay; type: cell-based; conditions: 250 nM
Source text: as §1, §2

SN12C (Renal) = conditions: reference 20, read-out: Cytotoxicity GI50; cited from earlier work
NCI-60 cancer cell lines = conditions: NCI-60 panel; reference 20; read-out: MGM (average GI50 across NCI-60 panel); cited from earlier work
OVCAR-3 (Ovarian) = conditions: Ovarian OVCAR-3; reference 20; read-out: Cytotoxicity GI50; cited from earlier work
HOP-62 (Lung) = conditions: Lung HOP-62; reference 20; read-out: Cytotoxicity GI50; cited from earlier work

COc1cc2c3c(n(CCCN4CCOCC4)c(=O)c2cc1OC)-c1nc2c(cc1C3=O)OCO2 [G101, 2,3-Dimethoxy-6-(3-morpholinopropyl)-5H-[1,3]dioxolo[4″,5″:5′,6′]pyrido[3′,2′:4,5]cyclopenta[1,2-c]isoquinoline-5,12(6H)-dione]
growth inhibition (% viability) (CA-46 cells): did not show growth inhibition
growth inhibition (% viability) (Raji cells): did not show growth inhibition

COc1cc2c3c(n(CCCNCCO)c(=O)c2cc1OC)-c1cc2c(cc1C3=O)OCO2 [LMP744]
GI50 (SN12C (Renal)): < 10 nM
GI50 (NCI-60 cancer cell lines): 110 nM
GI50 (OVCAR-3 (Ovarian)): 350 nM
GI50 (HOP-62 (Lung)): 20 nM

Source: US20240287089A1, “Preparation and Uses of 7-Azaindenoisoquinolines” (Purdue Research Foundation, priority 0001, published 2024)
